Among the data in patent US20140357655A1, “SPIROINDOLINE DERIVATIVES AS GONADOTROPIN- RELEASING HORMONE RECEPTOR ANTAGONISTS” (Bayer Intellectual Property GmbH, priority 2012, published 2014) are IC50 values, retold here.

This assay concerns the target T1, human GnRH receptor (Homo sapiens, UniProt P30968).
T1 sequence (P30968 1-328): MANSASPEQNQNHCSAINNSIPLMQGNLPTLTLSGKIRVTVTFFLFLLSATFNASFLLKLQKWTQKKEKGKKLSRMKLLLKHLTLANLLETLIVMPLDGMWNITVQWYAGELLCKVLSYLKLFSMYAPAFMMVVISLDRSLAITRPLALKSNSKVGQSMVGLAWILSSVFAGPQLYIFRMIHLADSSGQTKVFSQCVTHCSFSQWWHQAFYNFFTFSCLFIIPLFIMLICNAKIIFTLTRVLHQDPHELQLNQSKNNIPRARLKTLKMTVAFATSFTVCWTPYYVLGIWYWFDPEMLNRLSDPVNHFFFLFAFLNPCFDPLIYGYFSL
As to the kind of experiment: IP-One HTRF assay with buserelin (at EC80) stimulation. Format: cell-based. As to conditions: CHO cells stably expressing human GnRH receptor, read-out: Potency in IP-One HTRF assay, given as IC50. The source says: 2.3. IP-One HTRF® Assay By using homogenous time-resolved fluorescence resonance energy transfer (HTRF), the generation of one component of the GnRH—R signalling cascade can be measured. After stimulation of CHO cells stably expressing human GnRH receptor (established by Prof. Thomas Gudermann, currently University of Marburg, Germany; supplied as frozen cell aliquots by Cell Culture Services, Hamburg, Germany) with the EC80 of the GnRH agonist buserelin, Gq protein-coupled receptor signalling cascade is activated resulting in PLC-dependent cleavage of PIP2 to Inositol-1,4,5-triphosphate (IP3) and Diacylglycerol. The second messenger IP3 is degraded intracellularly to myo-inositol. Inhibition of the final degradation step from Inositol-1-phosphate (IP1) to myo-inositol by addition of lithium chloride leads to accumulation of IP1 in the cells. In cell lysates, IP1 can be detected via an antibody-based HTRF detection technology, where IP1 can displace the FRET acceptor IP1-d2 from binding by Terbium-labelled anti-IP1 antibody as donor resulting in a signal decrease. Compounds were tested for their capability of inhibiting GnRH—R activation by buserelin. For all IP-One HTRF® assays reagents of Cisbio Bioassays (IP-One Tb Jumbo kit, #62IPAPEJ; Cisbio Bioassays, Bagnols sur Cèze Cedex, France) were used.
For the assay, frozen cell aliquots were thawed and a cell suspension (3.33×10^6 cells/mL) containing IP1-d2 (dilution 1:40) was prepared and incubated at 37° C. After 1 h 3 μl of the cell suspension were added to 50 nl of a 100-fold concentrated solution of the test compound in DMSO pre-dispensed in a well of a white low-volume 384-well microtiter plate (Greiner Bio-One, Frickenhausen, Germany). […] Plates were incubated for 1 h at 37° C. and 5% carbon dioxide before the cells were lysed by adding 3 μl Terbium-labelled anti-IP1 antibody (1:40) diluted in Conjugate & Lysis buffer as supplied with the kit. After an incubation for 1 h at 22° C. to enable complete cell lysis and antibody binding to free IP1 or IP1-d2, plates were measured in an HTRF reader, e.g. a RUBYstar, PHERAstar (both BMG Labtechnologies, Offenburg, Germany) or a Viewlux (PerkinElmer LAS, Rodgau-Jügesheim, Germany).
From the fluorescence emissions at 665 nm (FRET) and at 620 nm (background signal of Terbium-antibody), the ratio (emission at 665 nm divided by emission at 620 nm) was calculated and the data were normalized (reaction without test compound=0% inhibition; all other assay components except agonist=100% inhibition). On the same microtiter plate, compounds were tested at 10 different concentrations in the range of 20 μM to 1 nM (20 μM, 6.7 μM, 2.2 μM, 0.74 μM, 0.25 μM, 82 nM, 27 nM, 9.2 nM, 3.1 nM and 1 nM; dilution series prepared before the assay at the level of the 100-fold conc. stock solutions by serial 1:3 dilutions in 100% DMSO) in duplicate values for each concentration. By using an in-house software, the IC50 values were calculated by a 4 parameter fit.
(In general: In TR-FRET formats the signal depends on donor and acceptor labels being close together.)
Turning to `O=C(NCc1ncc(F)cc1Cl)c1ccc2c(c1)C1(CCS(=O)(=O)CC1)C(C1CC1)N2S(=O)(=O)c1ccc(F)cc1` (single isomer, unassigned) [Example 17.2, N-[(3-chloro-5-fluoropyridin-2-yl)methyl]-2-cyclopropyl-1-[(4-fluorophenyl)sulfonyl]-1,2,2′,3′,5′,6′-hexahydrospiro[indole-3,4′-thiopyran]-5-carboxamide 1′,1′-dioxide], the half-maximal inhibitory concentration (IC50) (usually the concentration that gives 50% inhibition) was 2480 nM.

For the compound `O=C(NCc1ccccc1Cl)c1ccc2c(c1)C1(CCS(=O)(=O)CC1)C(C1CC1)N2S(=O)(=O)c1ccc(F)cc1` (single isomer, unassigned) [Example 18.2, N-(2-chlorobenzyl)-2-cyclopropyl-1-[(4-fluorophenyl)sulfonyl]-1,2,2′,3′,5′,6′-hexahydrospiro[indole-3,4′-thiopyran]-5-carboxamide 1′,1′-dioxide], the concentration for half-maximal inhibition (IC50) was 5240 nM.

With `CS(=O)(=O)c1cccc(NC(=O)c2ccc3c(c2)C2(CCS(=O)(=O)CC2)C(C2CC2)N3S(=O)(=O)c2ccc(F)cc2)c1` (single isomer, unassigned) [Example 23.1, 2-cyclopropyl-1-[(4-fluorophenyl)sulfonyl]-N-(3-mesylphenyl)-1,2,2′,3′,5′,6′-hexahydrospiro[indole-3,4′-thiopyran]-5-carboxamide 1′,1′-dioxide], the half-maximal inhibitory concentration (IC50) was 1870 nM.

Turning to `CS(=O)(=O)c1cccc(NC(=O)c2ccc3c(c2)C2(CCS(=O)(=O)CC2)C(C2CC2)N3S(=O)(=O)c2ccc(F)cc2)c1` (single isomer, unassigned) [Example 23.2, 2-cyclopropyl-1-[(4-fluorophenyl)sulfonyl]-N-(3-mesylphenyl)-1,2,2′,3′,5′,6′-hexahydrospiro[indole-3,4′-thiopyran]-5-carboxamide 1′,1′-dioxide], the half-inhibitory concentration (IC50) worked out at 153 nM.

Take `NS(=O)(=O)c1cccc(NC(=O)c2ccc3c(c2)C2(CCS(=O)(=O)CC2)C(C2CC2)N3S(=O)(=O)c2ccc(F)cc2)c1` (single isomer, unassigned) [Example 30.1, 2-cyclopropyl-1-[(4-fluorophenyl)sulfonyl]-N-(3-sulfamoylphenyl)-1,2,2′,3′,5′,6′-hexahydrospiro[indole-3,4′-thiopyran]-5-carboxamide 1′,1′-dioxide]: the IC50 was 441 nM.

For `NS(=O)(=O)c1cccc(NC(=O)c2ccc3c(c2)C2(CCS(=O)(=O)CC2)C(C2CC2)N3S(=O)(=O)c2ccc(F)cc2)c1` (single isomer, unassigned) [Example 30.2, 2-cyclopropyl-1-[(4-fluorophenyl)sulfonyl]-N-(3-sulfamoylphenyl)-1,2,2′,3′,5′,6′-hexahydrospiro[indole-3,4′-thiopyran]-5-carboxamide 1′,1′-dioxide], the IC50 turned out to be 190 nM.

As to `Cc1cccnc1CNC(=O)c1ccc2c(c1)C1(CCS(=O)(=O)CC1)C(C1CC1)N2S(=O)(=O)c1ccc(F)cc1` (single isomer, unassigned) [Example 31.1, 2-cyclopropyl-1-[(4-fluorophenyl)sulfonyl]-N-[(3-methylpyridin-2-yl)methyl]-1,2,2′,3′,5′,6′-hexahydrospiro[indole-3,4′-thiopyran]-5-carboxamide 1′,1′-dioxide], the IC50 was 266 nM.

For the compound `Cc1cccnc1CNC(=O)c1ccc2c(c1)C1(CCS(=O)(=O)CC1)C(C1CC1)N2S(=O)(=O)c1ccc(F)cc1` (single isomer, unassigned) [Example 31.2, 2-cyclopropyl-1-[(4-fluorophenyl)sulfonyl]-N-[(3-methylpyridin-2-yl)methyl]-1,2,2′,3′,5′,6′-hexahydrospiro[indole-3,4′-thiopyran]-5-carboxamide 1′,1′-dioxide], the concentration for half-maximal inhibition (IC50) was found to be 15100 nM.

`O=C(NCc1ccccc1C(F)(F)F)c1ccc2c(c1)C1(CCS(=O)(=O)CC1)C(C1CC1)N2S(=O)(=O)c1ccc(F)cc1` (single isomer, unassigned) [Example 32.1, 2-cyclopropyl-1-[(4-fluorophenyl)sulfonyl]-N-[2-(trifluoromethyl)benzyl]-1,2,2′,3′,5′,6′-hexahydrospiro[indole-3,4′-thiopyran]-5-carboxamide 1′,1′-dioxide]: the IC50 is 34 nM.

For `O=C(NCc1ccccc1C(F)(F)F)c1ccc2c(c1)C1(CCS(=O)(=O)CC1)C(C1CC1)N2S(=O)(=O)c1ccc(F)cc1` (single isomer, unassigned) [Example 32.2, 2-cyclopropyl-1-[(4-fluorophenyl)sulfonyl]-N-[2-(trifluoromethyl)benzyl]-1,2,2′,3′,5′,6′-hexahydrospiro[indole-3,4′-thiopyran]-5-carboxamide 1′,1′-dioxide], the IC50 stood at 1260 nM.

On to `O=C(NC1CCOc2ccccc21)c1ccc2c(c1)C1(CCS(=O)(=O)CC1)C(C1CC1)N2S(=O)(=O)c1ccc(F)cc1` (single isomer, unassigned) [Example 33.1, 2-cyclopropyl-N-(3,4-dihydro-2H-chromen-4-yl)-1-[(4-fluorophenyl)sulfonyl]-1,2,2′,3′,5′,6′-hexahydrospiro[indole-3,4′-thiopyran]-5-carboxamide 1′,1′-dioxide], for which the IC50 came to 425 nM.

Take `O=C(NC1CCOc2ccccc21)c1ccc2c(c1)C1(CCS(=O)(=O)CC1)C(C1CC1)N2S(=O)(=O)c1ccc(F)cc1` (single isomer, unassigned) [Example 33.2, 2-cyclopropyl-N-(3,4-dihydro-2H-chromen-4-yl)-1-[(4-fluorophenyl)sulfonyl]-1,2,2′,3′,5′,6′-hexahydrospiro[indole-3,4′-thiopyran]-5-carboxamide 1′,1′-dioxide]: the IC50 is over 20000 nM.

As for `O=C(NC1CCOc2ccccc21)c1ccc2c(c1)C1(CCS(=O)(=O)CC1)C(C1CC1)N2S(=O)(=O)c1ccc(F)cc1` (single isomer, unassigned) [Example 33.3, 2-cyclopropyl-N-(3,4-dihydro-2H-chromen-4-yl)-1-[(4-fluorophenyl)sulfonyl]-1,2,2′,3′,5′,6′-hexahydrospiro[indole-3,4′-thiopyran]-5-carboxamide 1′,1′-dioxide], the IC50 was over 20000 nM.

As to `COC(=O)c1cccc(NC(=O)c2ccc3c(c2)C2(CCS(=O)(=O)CC2)C(C2CC2)N3S(=O)(=O)c2ccc(F)cc2)c1` (single isomer, unassigned) [Example 34.1, methyl 3-[({2-cyclopropyl-1-[(4-fluorophenyl)sulfonyl]-1′,1′-dioxido-1,2,2′,3′,5′,6′-hexahydrospiro[indole-3,4′-thiopyran]-5-yl}carbonyl)amino]benzoate], the IC50 was determined as 38 nM.

For `COC(=O)c1cccc(NC(=O)c2ccc3c(c2)C2(CCS(=O)(=O)CC2)C(C2CC2)N3S(=O)(=O)c2ccc(F)cc2)c1` (single isomer, unassigned) [Example 34.2, methyl 3-[({2-cyclopropyl-1-[(4-fluorophenyl)sulfonyl]-1′,1′-dioxido-1,2,2′,3′,5′,6′-hexahydrospiro[indole-3,4′-thiopyran]-5-yl}carbonyl)amino]benzoate], the half-maximal inhibitory concentration (IC50) turned out to be 825 nM.

As to `O=C(NCC1CC1)c1ccc2c(c1)C1(CCS(=O)(=O)CC1)C(C1CC1)N2S(=O)(=O)c1ccc(F)cc1` (single isomer, unassigned) [Example 35.1, 2-cyclopropyl-N-(cyclopropylmethyl)-1-[(4-fluorophenyl)sulfonyl]-1,2,2′,3′,5′,6′-hexahydrospiro[indole-3,4′-thiopyran]-5-carboxamide 1′,1′-dioxide], the IC50 worked out at 394 nM.
